Laboratory results taken from patent publication US7829080B2, “Stabilization method of reduced coenzyme Q10” (Kaneka Corporation, priority 2006, dated 2010).

Assays:
[1] = Oral absorbability test (Example 4); assay type: in vivo, Crj:CD (SD) rats; settings: male rats, 25 mg/ml soy bean oil solution at 4.0 ml/kg, 2 hr from administration
Procedure: Crj:CD (SD) rats (about 77-week-old, 10 male rats) were prepared. Reduced coenzyme Q10 was orally administered to 5 of them, and a mixture of reduced coenzyme Q10 and reduced coenzyme Q11 (containing 0.1% of reduced coenzyme Q11) was orally administered to the remaining 5 of them, each as a 25 mg/ml soy bean oil solution at a dose of 4.0 ml/kg. At 2 hr from the administration, blood was drawn and centrifuged to give plasma samples. Using HPLC, the concentration of coenzyme Q10 in the obtained plasma was measured. The results are shown in the bar graph of FIG. 2. As is clear from FIG. 2, the concentration of coenzyme Q10 in the plasma was about 3.4 μg/ml resulting from the administration of both reduced coenzyme Q10 and a mixture of reduced coenzyme Q10 and reduced coenzyme Q11.

[2] = Plasma total coenzyme Q after 14-day oral administration (Example 3); assay type: in vivo, Crj:CD (SD) rats; settings: male and female rats, 600 mg/kg oral in corn oil once a day for 14 days, 24 hr after final administration; compared to the reduced coenzyme Q10 administration group
Procedure: A first group was used as a control group, and corn oil (3 ml/kg) was orally administered once a day for 14 days. […] At 24 hr after the final administration, blood samples were collected to give plasma samples. Using HPLC, the concentration of coenzyme Q in the obtained plasma was measured. The results are shown in the bar graph of FIG. 1.

Structure (SMILES)	concentration of coenzyme Q10 in the plasma [1]	concentration of total coenzyme Q in the plasma [2]
COc1c(O)c(C)c(C/C=C(\C)CC/C=C(\C)CC/C=C(\C)CC/C=C(\C)CC/C=C(\C)CC/C=C(\C)CC/C=C(\C)CC/C=C(\C)CC/C=C(\C)CCC=C(C)C)c(O)c1OC [reduced coenzyme Q10]	about 3.4 μg/ml	–
COc1c(O)c(C)c(C/C=C(\C)CC/C=C(\C)CC/C=C(\C)CC/C=C(\C)CC/C=C(\C)CC/C=C(\C)CC/C=C(\C)CC/C=C(\C)CCC=C(C)C)c(O)c1OC [reduced coenzyme Q9]	–	increased
